According to patent US11597724B2, “Herbicidally active 3-phenylisoxazoline-5-carboxamides of tetrahydro and dihydrofuran carboxylic acids and esters” (Bayer Aktiengesellschaft, priority 2017, dated 2023):

How the values were obtained:
Type in all cases: in vivo
Alopecurus myosuroides = experiment: Post-emergence herbicidal activity against ALOMY; conditions: Alopecurus myosuroides, 504 h, dosage 320 g/ha, rated about 3 weeks after treatment
Procedure, shortened: (§1)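 Greenhouse-grown plants treated at one-leaf stage, 2 to 3 weeks after sowing, with WP or EC formulations sprayed as aqueous suspension/emulsion plus 0.5% additive at 600 l/ha. Activity rated visually about 3 weeks later versus untreated controls (100% = plants dead, 0% = like control).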

Hordeum murinum = experiment: Post-emergence herbicidal activity against HORMU; conditions: Hordeum murinum, 504 h, dosage 320 g/ha
Procedure, shortened: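 Greenhouse pot plants sprayed post-emergence at one-leaf stage (2-3 weeks after sowing) with WP or EC formulations, 0.5% additive, 600 l/ha water. Visual rating about 3 weeks later versus untreated controls: 100% = plants dead, 0% = like control.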

Abutilon theophrasti = experiment: Post-emergence herbicidal activity against ABUTH; conditions: Abutilon theophrasti, 504 h, dosage 320 g/ha, rated about 3 weeks after treatment
Procedure, shortened: as §1

Veronica persica = experiment: Pre-emergence herbicidal activity against VERPE; conditions: Veronica persica, 504 h, dosage 80 g/ha
Source text: (§2) 1. Pre-Emergence Herbicidal Action and Crop Plant Compatibility Seeds of monocotyledonous and dicotyledonous weed plants and crop plants are placed in plastic or wood fiber pots and covered with soil. The compounds of the invention, formulated in the form of wettable powders (WP) or as emulsion concentrates (EC), are then applied onto the surface of the covering soil as aqueous suspension or emulsion with addition of 0.5% additive at a water application rate of 600 l/ha (converted). After the treatment, the pots are placed in a greenhouse and kept under good growth conditions for the trial plants. After about 3 weeks, the effect of the preparations is scored visually in comparison with untreated controls as percentages. For example, 100% activity=the plants have died, 0% activity=like control plants. STEME: Stellaria media VERPE: Veronica persica

Setaria viridis = experiment: Pre-emergence herbicidal activity against SETVI; conditions: Setaria viridis, 504 h, dosage 80 g/ha
Source text: as §2, with “POLCO: Polygonum convolvulus SETVI: Setaria viridis” for “STEME: Stellaria media VERPE: Veronica persica”

Compound `COC(=O)[C@H]1C[C@H](NC(=O)[C@@]2(C)CC(c3cc(F)cc(F)c3)=NO2)CO1` (mixture of isomers) [I-55, methyl trans-4-[[(5R)-3-(3,5-difluorophenyl)-5-methyl-4H-isoxazole-5-carbonyl]amino]tetrahydrofuran-2-carboxylate] has a pest or weed control at 320 g/ha (Alopecurus myosuroides) of 90%, a pest or weed control at 320 g/ha (Hordeum murinum) of 100% and a pest or weed control at 320 g/ha (Abutilon theophrasti) of 90%.

In the case of `C=C[C@]1(C(=O)N[C@@H]2CO[C@@H](C(=O)OC)C2)CC(c2cc(F)cc(F)c2)=NO1` (mixture of isomers) [I-56, methyl trans-4-[[(5S)-3-(3,5-difluorophenyl)-5-vinyl-4H-isoxazole-5-carbonyl]amino]tetrahydrofuran-2-carboxylate], the pest or weed control at 320 g/ha (Alopecurus myosuroides) is reported as 90%, the pest or weed control at 320 g/ha (Hordeum murinum) is reported as 90% and the pest or weed control at 320 g/ha (Abutilon theophrasti) is reported as 90%.

For `CC(C)(C)OC(=O)[C@H]1C[C@@H](NC(=O)C2(C)CC(c3cccc(F)c3)=NO2)CO1` (mixture of isomers) [I-33, tert-butyl cis-4-[[(5RS)-3-(3-fluorophenyl)-5-methyl-4H-isoxazole-5-carbonyl]amino]tetrahydrofuran-2-carboxylate], the pest or weed control at 320 g/ha (Alopecurus myosuroides) was 100%, the pest or weed control at 80 g/ha (Veronica persica) was 100% and the pest or weed control at 80 g/ha (Setaria viridis) was 100%. For the same compound, the pest or weed control at 320 g/ha (Hordeum murinum) was 90%.

In the case of `C=CC1(C(=O)N[C@H]2CO[C@@H](C(=O)OC)C2)CC(c2cc(Cl)cc(Cl)c2)=NO1` (relative stereo) [I-03, methyl cis-4-[[3-(3,5-dichlorophenyl)-5-vinyl-4H-isoxazole-5-carbonyl]amino]tetrahydrofuran-2-carboxylate], the pest or weed control at 320 g/ha (Alopecurus myosuroides) is reported as 90%.

Work on `COC(=O)[C@H]1C[C@@H](NC(=O)C2(C)CC(c3cc(C)cc(Br)c3)=NO2)CO1` (relative stereo) [I-04, methyl cis-4-[[3-(3-bromo-5-methylphenyl)-5-methyl-4H-isoxazole-5-carbonyl]amino]tetrahydrofuran-2-carboxylate] yielded a pest or weed control at 320 g/ha (Alopecurus myosuroides) of 90%.

Work on `COC(=O)[C@H]1C[C@@H](NC(=O)C2(OC)CC(c3cc(F)cc(F)c3)=NO2)CO1` (relative stereo) [I-05, methyl cis-4-[[3-(3,5-difluorophenyl)-5-methoxy-4H-isoxazole-5-carbonyl]amino]tetrahydrofuran-2-carboxylate] yielded a pest or weed control at 320 g/ha (Alopecurus myosuroides) of 90% and a pest or weed control at 80 g/ha (Setaria viridis) of 90%.

Compound `C=CC1(C(=O)N[C@H]2CO[C@@H](C(=O)OC)C2)CC(c2cccc(F)c2)=NO1` (relative stereo) [I-07, methyl cis-4-[[3-(3-fluorophenyl)-5-vinyl-4H-isoxazole-5-carbonyl]amino]tetrahydrofuran-2-carboxylate] has a pest or weed control at 320 g/ha (Alopecurus myosuroides) of 90%.

In the case of `COC(=O)[C@H]1C[C@@H](NC(=O)C2(OC)CC(c3cc(C)cc(Br)c3)=NO2)CO1` (relative stereo) [I-08, methyl cis-4-[[3-(3-bromo-5-methylphenyl)-5-methoxy-4H-isoxazole-5-carbonyl]amino]tetrahydrofuran-2-carboxylate], the pest or weed control at 80 g/ha (Veronica persica) is reported as 90%.

`COC(=O)[C@H]1C[C@@H](NC(=O)C2(OC)CC(c3ccccc3)=NO2)CO1` (relative stereo) [I-14, methyl cis-4-[(5-methoxy-3-phenyl-4H-isoxazole-5-carbonyl)amino]tetrahydrofuran-2-carboxylate] gave a pest or weed control at 320 g/ha (Alopecurus myosuroides) of 100%.

For `C=CC1(C(=O)NC2=C(C(=O)OCC)COC2)CC(c2cc(F)cc(F)c2)=NO1` (stereo not shown) [I-23, ethyl 4-[[3-(3,5-difluorophenyl)-5-vinyl-4H-isoxazole-5-carbonyl]amino]-2,5-dihydrofuran-3-carboxylate], the pest or weed control at 320 g/ha (Alopecurus myosuroides) was 100% and the pest or weed control at 320 g/ha (Hordeum murinum) was 100%.

For `COC(=O)[C@@]1(OC)C[C@@H](NC(=O)C2(C)CC(c3cccc(F)c3)=NO2)CO1` (stereo partly drawn) [I-47, methyl (2R,4R)-4-[[3-(3-fluorophenyl)-5-methyl-4H-isoxazole-5-carbonyl]amino]-2-methoxytetrahydrofuran-2-carboxylate], the pest or weed control at 320 g/ha (Alopecurus myosuroides) was 100%, the pest or weed control at 320 g/ha (Hordeum murinum) was 100% and the pest or weed control at 320 g/ha (Abutilon theophrasti) was 80%.
